Our source for the melting point values is patent US20100130737A1, “Regulating Agent of GPR34 Receptor Function” (TAKEDA PHARMACEUTICAL COMPANY LIMITED, priority 2005, published 2010).

One may read the melting point as the temperature of the solid-liquid transition.

On to `O=C(Cc1c[nH]c2ccccc12)NC1(C(=O)O)Cc2ccc(-c3ccc(Cl)cc3)cc2C1` (stereo not drawn) [Example B176], for which the melting point lay in the range of 209 to 211 °C.

In the case of `O=C(NC(Cc1ccc(OCc2ccccc2)cc1)c1nnn[nH]1)c1cn2cc(-c3ccc(Cl)cc3)ccc2n1` (stereo not drawn) [Example E14, N-[2-[4-(Benzyloxy)phenyl]-1-(1H-tetrazol-5-yl)ethyl]-6-(4-chlorophenyl)imidazo[1,2-a]pyridine-2-carboxamide], the melting point amounted to 241 °C. For `CC(C)(C)OC(=O)N[C@@H](Cc1ccccc1)C(=O)NC1(C(=O)O)Cc2ccc(-c3ccc(Cl)cc3)cc2C1` (stereo partly drawn) [Example B120, 2-{[N-(tert-Butoxycarbonyl)phenylalanyl]amino}-5-(4-chlorophenyl)indan-2-carboxylic acid], the melting point lay within 140 to 142 °C. Compound `O=C(Cc1ccc(OCc2ccccc2F)cc1)NC1(C(=O)O)Cc2ccc(-c3ccc(Cl)cc3)cc2C1` (stereo not drawn) [Example B141, 5-(4-Chlorophenyl)-2-[({4-[(2-fluorobenzyl)oxy]phenyl}acetyl)amino]indan-2-carboxylic acid] showed a melting point of 232 to 233 °C. Under `COc1cc(F)c(-c2ccc3nc(C(=O)N[C@@H](Cc4ccc(OCc5ccccc5)cc4)C(=O)O)cn3c2)c(F)c1` [Example E46, O-Benzyl-N-{[6-(2,6-difluoro-4-methoxyphenyl)imidazo[1,2-a]pyridin-2-yl]carbonyl}tyrosine] stands 219 °C; under `Cc1nc2ccccc2n1Cc1ccc(C(=O)NC2(C(=O)O)Cc3ccc(-c4ccc(Cl)cc4)cc3C2)cc1` (stereo not drawn) [Example B157, 5-(4-Chlorophenyl)-2-({4-[(2-methyl-1H-benzimidazol-1-yl)methyl]benzoyl}amino)indan-2-carboxylic acid], 258 to 259 °C. The same measure for `CC(C)(C)OC(=O)N[C@H](Cc1c[nH]c2ccccc12)C(=O)NC1(C(=O)O)Cc2ccc(-c3ccc(Cl)cc3)cc2C1` (stereo partly drawn) [Example B119, 2-{[N-(tert-Butoxycarbonyl)-D-tryptophyl]amino}-5-(4-chlorophenyl)indan-2-carboxylic acid]: 158 °C. The same measure for `O=C(N[C@@H](Cc1ccc(OCc2ccc(C(F)(F)F)cc2)cc1)C(=O)O)c1cc2cc(-c3ccc(Cl)cc3)ccc2s1` [Example C138, N-{[5-(4-Chlorophenyl)-1-benzothiophene-2-yl]carbonyl}-O-[4-(trifluoromethyl)benzyl]tyrosine]: 198 °C; for `Cc1ccc(COc2ccc(CC(NC(=O)c3cc4ccc(-c5ccc(Cl)cc5)cc4o3)C(=O)O)cc2)cc1` (stereo not drawn) [Example C158]: 204 °C. For `O=C(O)CN(Cc1ccc(OCc2ccccc2)cc1)C(=O)c1cn2cc(-c3ccc(Cl)cc3)ccc2n1` [Example E39, N-[4-(Benzyloxy)benzyl]-N-{[6-(4-chlorophenyl)imidazo[1,2-a]pyridin-2-yl]carbonyl}glycine], the melting point is 213 to 214 °C. Compound `Nc1cccc(COc2ccc(CC(=O)NC3(C(=O)O)Cc4ccc(-c5ccc(Cl)cc5)cc4C3)cc2)c1` (stereo not drawn) [Example B192, 2-[({4-[(3-Aminobenzyl)oxy]phenyl}acetyl)amino]-5-(4-chlorophenyl)indan-2-carboxylic acid] came in with a melting point of 191 to 192 °C. The compound `CCc1ccc(COc2ccc(C[C@H](NC(=O)c3cc4ccc(-c5ccc(Cl)cc5)cc4o3)C(=O)O)cc2)cc1` [Example C161, N-{[6-(4-Chlorophenyl)-1-benzofuran-2-yl]carbonyl)-O-(4-ethylbenzyl)tyrosine] registered a melting point of 194 °C. The same measure for `O=C(N[C@@H](Cc1ccc(OCc2ccccc2)cc1)C(=O)O)c1cn2cc(-c3ccc(Cl)cc3Cl)ccc2n1` [Example E40, O-Benzyl-N-{[6-(2,4-dichlorophenyl)imidazo[1,2-a]pyridin-2-yl]carbonyl}tyrosine]: 237 to 239 °C; for `CS(=O)(=O)c1ccc(CC(=O)NC2(C(=O)O)Cc3ccc(-c4ccc(Cl)cc4)cc3C2)cc1` (stereo not drawn) [Example B135, 5-(4-Chlorophenyl)-2-({[4-(methylsulfonyl)phenyl]acetyl}amino)indan-2-carboxylic acid]: 216 °C. Under `O=C(O)CN(Cc1ccc(OCc2ccc(F)cc2)cc1)C(=O)c1cn2cc(-c3ccc(Cl)cc3)ccc2n1` [Example E13, N-{[6-(4-Chlorophenyl)imidazo[1,2-a]pyridin-2-yl]carbonyl}-N-{4-[(4-fluorobenzyl)oxy]benzyl}glycine] stands 206 °C. Under `O=C(Nc1ccc(F)cc1)NC1(C(=O)O)Cc2ccc(-c3ccc(Cl)cc3)cc2C1` (stereo not drawn) [Example B180, 5-(4-Chlorophenyl)-2-({[(4-fluorophenyl)amino]carbonyl}amino)indan-2-carboxylic acid] stands 177 °C; under `O=C(Cc1ccccc1OCc1ccccc1)NC1(C(=O)O)Cc2ccc(-c3ccc(Cl)cc3)cc2C1` (stereo not drawn) [Example B126, 2-({[2-(Benzyloxy)phenyl]acetyl}amino)-5-(4-chlorophenyl)indan-2-carboxylic acid], 245 °C; under `O=C(Cc1ccc(OCc2ccc(F)cc2)cc1)NC1(C(=O)O)Cc2ccc(-c3cccc(Cl)c3)cc2C1` (stereo not drawn) [Example B185, 5-(3-Chlorophenyl)-2-[({4-[(4-fluorobenzyl)oxy]phenyl}acetyl)amino]indan-2-carboxylic acid], 173 to 174 °C.

The compound `Cc1c(C(=O)N[C@H](C(=O)O)c2ccc(OCc3ccccc3)cc2)oc2cc(-c3ccc(Cl)cc3)ccc12` [Example C156, (2S)-[4-(Benzyloxy)phenyl]({[6-(4-chlorophenyl)-3-methyl-1-benzofuran-2-yl]carbonyl}amino)acetic acid] registered a melting point of 178 °C. The same measure for `O=C(N[C@@H](Cc1ccc(OCc2ccoc2)cc1)C(=O)O)c1cn2nc(-c3ccc(Cl)cc3)ccc2n1` [Example E32, N-{[6-(4-Chlorophenyl)imidazo[1,2-b]pyridazin-2-yl]carbonyl}-O-(3-furylmethyl)tyrosine]: 220 °C. Under `N#Cc1ccc(COc2ccc(C[C@H](NC(=O)c3cc4ccc(-c5ccc(Cl)cc5)cc4o3)C(=O)O)cc2)cc1` [Example C160, N-{[6-(4-Chlorophenyl)-1-benzofuran-2-yl]carbonyl}-O-(4-cyanobenzyl)tyrosine] stands 204 °C; under `CS(=O)(=O)Nc1cccc(COc2ccc(CC(=O)NC3(C(=O)O)Cc4ccc(-c5ccc(Cl)cc5)cc4C3)cc2)c1` (stereo not drawn) [Example B193, 5-(4-Chlorophenyl)-2-({[4-({3-[(methylsulfonyl)amino]benzyl)oxy)phenyl]acetyl}amino)indan-2-carboxylic acid], 169 to 170 °C; under `O=C(Cc1ccc(OCc2ccc(Cl)cc2)cc1)NC1(C(=O)O)Cc2ccc(-c3ccc(Cl)cc3)cc2C1` (stereo not drawn) [Example B143, 2-[({4-[(4-Chlorobenzyl)oxy]phenyl}acetyl)amino]-5-(4-chlorophenyl)indan-2-carboxylic acid], 230 to 232 °C.

Take `O=C(N[C@@H](Cc1ccc(OCc2ccsc2)cc1)C(=O)O)c1cn2cc(-c3ccc(Cl)cc3)ccc2n1` [Example E2, N-{[6-(4-Chlorophenyl)imidazo[1,2-a]pyridin-2-yl]carbonyl}-O-(3-thienylmethyl)-L-tyrosine]: the melting point came to 203 °C.
